We go through 29 compounds from PubChem BioAssay (NCI).

Assay in all cases: growth of human tumour cells (NCI), 48 h
Assay [1] relates to HT29 colon.
For assay [2], the system named is MDA-MB-231 breast.
Assay [3] has as its system OVCAR-5 ovarian.
For assay [4], the system named is RPMI-8226 leukemia.
In assay [5] the test system is SW-620 colon.
Assay [6] concerns UO-31 renal.
The test system of assay [7] is CCRF-CEM leukemia.
Assay [8] concerns K-562 leukemia.
In assay [9] the test system is LOX IMVI melanoma.
For assay [10], the system named is HL-60(TB) leukemia.

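How tested: cells in 96-well plates exposed to compound for 48 hours at five concentrations. At the GI50, growth is halved. TGI marks complete inhibition of growth.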

For `O=c1cc(-c2ccncc2)[nH]c2cc3c(cc12)OCO3`, the TGI in assay [1], in [2], in assay [3], in assay [4], in assay [5] and in [6] was greater than 100 µM throughout.
For the compound `COc1cccc2c1C(=O)c1c(O)c3c(c(O)c1C2=O)C[C@H](O)C[C@@H]3OC1CC(N)C(O)C(C)O1` (stereo partly specified), the TGI in assay [7] was 6.06 µM; in [1] it was 14.1 µM; in [8], 10.1 µM; in assay [9] it was 2.92 µM; in assay [2], 6.05 µM; in assay [3] it was 11.8 µM. The TGI in assay [4] worked out at 8.8 µM; in assay [6] it was 19.7 µM.
`CCCCC1=C(C(=O)N2CCOCC2)C2(OCCO2)C1=O`: the TGI was greater than 100 µM in assay [7]; 61.2 µM in [10]; 45.1 µM in assay [1]; 25.4 µM in assay [9]; 46.8 µM in assay [3]; 81.9 µM in [5]. For the same compound, the TGI in [6] was 30.3 µM.
On to `CCC1=C(C(C)=O)[C@@H]2CCCCC[C@@H](C(=O)OC)C2C1=O` (stereo partly specified), for which the TGI in assay [7], in assay [10], in assay [1], in [8], in assay [3] and in assay [4] was greater than 100 µM each time. Further, the TGI in assay [5] and in assay [6] was greater than 100 µM in each case.
On to `Cc1cc(C)nc(NS(=O)(=O)c2ccc(Nc3c4ccccc4nc4c(C(=O)N5CCN(CCOS(C)(=O)=O)CC5)cccc34)cc2)n1`, for which the TGI in assay [7], in [10], in assay [1], in [8], in assay [3] and in assay [4] was greater than 100 µM in each case. Also, the TGI in assay [6] is greater than 100 µM.
Turning to `CCCCOc1ccc(OCCCCCCCCCC[N+](C)(C)C)cc1`, the TGI in assay [7] amounted to 3.87 µM; in assay [10] it was 1.49 µM; in assay [1] it was 2.46 µM; in assay [8], 15.4 µM; in [9] it was 3.81 µM; in [3], 17.2 µM. For the same compound, the figures for the TGI in assay [4], in assay [5] and in [6] were 2.33 µM, 14.9 µM and 23 µM, respectively.
Regarding `COc1ccccc1CN=C1Nc2ccncc2S(=O)(=O)N1c1ccccc1`, the TGI in [7], in [10], in [1], in assay [8], in assay [9] and in [3] was greater than 100 µM throughout. The TGI in [4], in assay [5] and in [6] was greater than 100 µM each time.
For the compound `CC(C)(C)OC(=O)NC(Cc1ccccc1)NC(=O)NC(=O)OCc1ccccc1` (stereo unspecified), the TGI in assay [1], in assay [8], in assay [3], in assay [4], in [5] and in [6] was greater than 100 µM throughout.
As to `C=C1N(C=O)C(C)(C)N(O)C1(C)C`, the TGI in assay [1], in assay [9], in [2], in assay [3], in [4] and in assay [5] was greater than 100 µM each time. This compound also yielded a TGI in assay [6] greater than 100 µM.
`COc1cc(S(=O)(=O)Nc2ccc(C(=O)/C=C/c3ccc(O)cc3)cc2)ccc1F`: the GI50 in assay [7] was greater than 100000 nM; in assay [1] it was greater than 100 µM; in assay [8], greater than 100000 nM; in assay [9], greater than 100 µM; in assay [2], 0.0267 µM; in [3], greater than 100 µM. The values for the GI50 in assay [4] and in [5] were 58.5 µM and greater than 100000 nM, respectively. For the same compound, the TGI in [7] was greater than 100 µM; in [1] it was greater than 100 µM; in [8], greater than 100 µM; in assay [9], greater than 100 µM; in assay [2], 9.12 µM; in [3] it was greater than 100 µM. The TGI in assay [4] and in assay [5] was greater than 100 µM throughout.
`O=C(CCc1cc(O)cc(O)c1)NCCCNC(=O)CCc1cc(O)cc(O)c1`: the TGI in [7], in assay [1], in assay [8], in assay [9], in [2] and in assay [3] was greater than 100 µM in each case. Besides, the TGI in [4], in assay [5] and in assay [6] was greater than 100 µM throughout.
For the compound `CC(C)N1CC2CC(CN(C(=O)c3ccccc3)C2)C1`, the TGI in assay [7], in [10], in assay [1], in assay [8], in assay [9] and in [3] was greater than 100 µM each time. Further, the TGI in assay [4], in assay [5] and in [6] was greater than 100 µM in each case.
Consider `CN(C)CCNC(=O)c1cc(Cl)cc2ccc(-c3ccccc3)nc12`, for which the TGI in assay [7] turned out to be 6.01 µM; in assay [10], 4.88 µM; in [1], 10.7 µM; in [8], 8.17 µM; in assay [9] it was 6.7 µM; in [3] it was 13.7 µM. The TGI in assay [4] came out at 5.32 µM; in assay [5] it was 13.4 µM; in assay [6], 4.76 µM.
With `NCCCCNCCCNC(=O)c1nc(-c2nc(CCN)sc2Cl)sc1Cl`, the TGI in [7], in assay [10], in [1], in [8], in assay [3] and in [4] was greater than 100 µM throughout. Moreover, the TGI in assay [5] and in assay [6] was greater than 100 µM each time.
Consider `Cc1c(CN2CCN(C)CC2)c(CN2CCN(C)CC2)c(C)n1-c1ccc(Cl)cc1`, for which the TGI in assay [7] was 46.8 µM; in assay [1] it was 42.7 µM; in assay [8], greater than 100 µM; in [2], greater than 100 µM; in assay [3], greater than 100 µM; in assay [4], greater than 100 µM. Further, the TGI in assay [5] is greater than 100 µM; in assay [6], 87.9 µM.
For `CSC(SC)=C(C(=O)O)P(=O)(O)O`, the TGI in assay [7], in [10], in [1], in assay [9], in assay [2] and in assay [3] was greater than 100 µM each time. Also, the TGI in [5] was greater than 100 µM.
With `CSc1cc(=O)n2c3ccccc3c3ccnc1c32`, the TGI in [7], in assay [10], in assay [1], in assay [8], in [9] and in [3] was greater than 100 µM in each case. Further, the TGI in assay [4], in assay [5] and in assay [6] was greater than 100 µM in each case.
Turning to `O=C1C=CC(=O)N1n1c(-c2ccccc2)n[nH]c1=O`, the TGI in assay [7], in assay [10], in assay [1], in assay [8], in [2] and in [3] was greater than 100 µM in each case.
As to `S=C(N/N=C\C(=N/NC(=S)N1CCCCC1)c1ccccc1)N1CCCCC1`, the TGI in [1] was 4.61 µM; in assay [8], greater than 100 µM; in assay [9], greater than 100 µM; in [3], 3.33 µM; in [4], greater than 100 µM; in assay [5], 3.83 µM. For the same compound, in assay [6], the TGI amounted to 3.39 µM.
For the compound `COc1cc(-c2n/c(=C\c3c(O)[nH]c4ccc(Cl)cc34)cc3c2=Nc2ccccc2-3)ccc1F`, the GI50 was 2390 nM in [7]; 10.9 µM in assay [10]; 2220 nM in assay [8]; 1.56 µM in [2]; 3.9 µM in [3]; 6.75 µM in [4]. Besides, the GI50 was 1330 nM in [5] and 1120 nM in [6]. The TGI in assay [7] was greater than 100 µM; in assay [10] it was 34.7 µM; in assay [8] it was 5.98 µM; in [2], 3.22 µM; in [3], 13.3 µM; in assay [4], greater than 100 µM. Further, the TGI in assay [5] is 2.94 µM; in assay [6], 2.5 µM.
`COC(=O)[C@@H]1CCCCC[C@H]2C(CO)=C(C)C(=O)C12` (stereo partly specified): the TGI in assay [7], in assay [10], in assay [1], in [8], in [3] and in assay [4] was greater than 100 µM throughout. Also, the TGI in assay [5] and in [6] was greater than 100 µM throughout.
`O=S(=O)(O)c1ccc(N=Nc2ccc(N=Nc3ccc(/C=C/c4ccc(N=[N+]([O-])c5ccc(/C=C/c6ccc(N=Nc7ccc(N=Nc8ccc(S(=O)(=O)O)cc8)cc7)cc6S(=O)(=O)O)c(S(=O)(=O)O)c5)cc4S(=O)(=O)O)c(S(=O)(=O)O)c3)cc2)cc1`: the TGI in assay [7], in assay [10], in [1], in assay [8], in [9] and in assay [3] was greater than 100 µM in each case. Further, the TGI in assay [4], in [5] and in assay [6] was greater than 100 µM throughout.
With `C/C(Cl)=N\OC(=O)Nc1ccc(C)cc1`, the TGI in assay [7] was 6.31 µM; in assay [1], 41.6 µM; in assay [8], greater than 100 µM; in [9], 43.7 µM; in [2], 37.5 µM; in assay [3] it was 32.6 µM. For the same compound, the results for the TGI in [5] and in assay [6] were 33 µM and 31.3 µM, respectively.
In the case of `Cc1ccc2c(c1)-c1c(C#N)c(N)nc(-c3ccc(Cl)cc3)c1CCS2(=O)=O`, the TGI was greater than 23.7 µM in assay [7]; greater than 100 µM in [1]; 7.02 µM in [8]; greater than 100 µM in [9]; greater than 100 µM in assay [2]; greater than 100 µM in assay [3]. Besides, the TGI in assay [4] was 8.45 µM; in assay [5], greater than 100 µM; in assay [6], greater than 100 µM.
`CC1(C)OCC2OC3([C@@H]4OC(C)(C)O[C@H]4CO)OC(C)(C)OC3C2O1` (stereo partly specified): the TGI in assay [7], in assay [8], in [9], in assay [2], in assay [3] and in [4] was greater than 100 µM throughout. For the same compound, the TGI in [5] and in assay [6] was greater than 100 µM each time.
Consider `CCCCSc1nsc(N(C(=O)c2ccccc2)C(=O)c2ccccc2)n1`, for which the TGI in [7] was greater than 100 µM; in [10], 74 µM; in assay [1], 82.5 µM; in assay [8] it was 99.7 µM; in assay [9], greater than 100 µM; in [3], 89.4 µM. Further, the TGI in [4] was 47.2 µM; in assay [5], greater than 100 µM; in assay [6], 39.5 µM.
Consider `Cc1cc2c(O)c(c1)CN(CC(=O)O)Cc1cc(C)cc(c1O)CN(CC(=O)O)Cc1cc(C)cc(c1O)CN(CC(=O)O)C2`, for which the TGI in [7], in assay [1], in [8], in assay [9], in assay [2] and in [3] was greater than 100 µM each time. Moreover, the TGI in assay [4], in assay [5] and in assay [6] was greater than 100 µM each time.
Turning to `N#C/C(C(=O)Nc1ccc(Cl)cc1)=C(/N)N1CCCC1`, the TGI in assay [7], in assay [10], in [8], in assay [9], in assay [3] and in [4] was greater than 100 µM each time. The TGI in [5] and in assay [6] was greater than 100 µM each time.
`CCc1c(CNc2ccc(C(=O)NC(CC(=O)O)C(=O)O)cc2)ccc2nc(N)nc(N)c12` (stereo unspecified): the TGI in assay [7], in assay [1], in [8], in assay [9], in assay [2] and in [3] was greater than 1000 µM each time. Also, the TGI in [4], in assay [5] and in [6] was greater than 1000 µM in each case. Also, the results for the GI50 in [2], in assay [4] and in [6] were greater than 1000 µM, 1.28 µM and 212 nM, respectively.
